Assays:
Test in all cases: relative viability (nuclei count vs DMSO), 5 days (fraction); higher = more cells survive
[1] = compound: N[C@@H]1CCCN(c2c(/C=C3\SC(=O)NC3=O)cccc2-c2ccccc2)C1 [AZD1208] + Cc1cc(Nc2cc(N3CCN(C)CC3)nc(Sc3ccc(NC(=O)C4CC4)cc3)n2)n[nH]1 [Tozasertib] (partner 0.1 µM)
Outline: (§1)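 Relative viability was taken as the ratio of nuclei in treated wells to nuclei in vehicle wells. Lung cancer cell lines in 1536-well plates received compounds by pin tool one day after seeding, either one drug alone or a fixed anchor-drug dose plus five library-drug doses (not always all listed) in √10 steps. Nuclei were counted on 4× images after 5 days of treatment, and values are medians of duplicate plates.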

[2] = compound: N[C@@H]1CCCN(c2c(/C=C3\SC(=O)NC3=O)cccc2-c2ccccc2)C1 [AZD1208] + Nc1nc2[nH]cc(CCc3ccc(C(=O)N[C@@H](CCC(=O)O)C(=O)O)cc3)c2c(=O)[nH]1 [Pemetrexed] (partner 0.2 µM)
Outline: as §1

[3] = compound: CN1CCN(CC1)C2=CC(=C(C=C2)NC3=NC(=C(S3)C(=O)C4=C(C=CC=C4Cl)Cl)N)OC [XMD14-99] + Nc1nc2[nH]cc(CCc3ccc(C(=O)N[C@@H](CCC(=O)O)C(=O)O)cc3)c2c(=O)[nH]1 [Pemetrexed] (partner 0.2 µM)
Outline: as §1

[4] = compound: N[C@@H]1CCCN(c2c(/C=C3\SC(=O)NC3=O)cccc2-c2ccccc2)C1 [AZD1208] + COc1cc2c(Oc3ccc(NC(=O)C4(C(=O)Nc5ccc(F)cc5)CC4)cc3F)ccnc2cc1OCCCN1CCOCC1 [Foretinib] (partner 0.25 µM)
Outline: as §1

HCC-78
relative viability ([1]; first compound 0.08 µM): 0.456
relative viability ([1]; first compound 0.253 µM): 0.412
relative viability ([1]; first compound 0.8 µM): 0.437
relative viability ([1]; first compound 2.53 µM): 0.288
relative viability ([1]; first compound 8 µM): 0.256
relative viability ([2]; first compound 0.08 µM): 0.91
relative viability ([2]; first compound 0.253 µM): 0.908
relative viability ([2]; first compound 0.8 µM): 0.897
relative viability ([2]; first compound 2.53 µM): 0.87
relative viability ([2]; first compound 8 µM): 0.912
relative viability ([3]; first compound 0.08 µM): 0.852
relative viability ([3]; first compound 0.8 µM): 0.899
relative viability ([3]; first compound 2.53 µM): 0.943
relative viability ([3]; first compound 8 µM): 0.934
relative viability ([4]; first compound 0.08 µM): 0.549
relative viability ([4]; first compound 0.253 µM): 0.499
relative viability ([4]; first compound 0.8 µM): 0.512
relative viability ([4]; first compound 2.53 µM): 0.526
relative viability ([4]; first compound 8 µM): 0.625

LOU-NH91
relative viability ([1]; first compound 0.08 µM): 0.711
relative viability ([1]; first compound 0.253 µM): 0.558
relative viability ([1]; first compound 0.8 µM): 0.62
relative viability ([1]; first compound 2.53 µM): 0.556
relative viability ([1]; first compound 8 µM): 0.516
relative viability ([2]; first compound 0.08 µM): 0.357
relative viability ([2]; first compound 0.253 µM): 0.409
relative viability ([2]; first compound 0.8 µM): 0.421
relative viability ([2]; first compound 2.53 µM): 0.357
relative viability ([2]; first compound 8 µM): 0.434
relative viability ([3]; first compound 0.08 µM): 0.351
relative viability ([3]; first compound 0.8 µM): 0.379
relative viability ([3]; first compound 2.53 µM): 0.319
relative viability ([3]; first compound 8 µM): 0.415
relative viability ([4]; first compound 0.08 µM): 0.943
relative viability ([4]; first compound 0.253 µM): 0.876
relative viability ([4]; first compound 0.8 µM): 0.874
relative viability ([4]; first compound 2.53 µM): 0.93
relative viability ([4]; first compound 8 µM): 0.909

NCI-H322M
relative viability ([1]; first compound 0.08 µM): 0.429
relative viability ([1]; first compound 0.253 µM): 0.492
relative viability ([1]; first compound 0.8 µM): 0.463
relative viability ([1]; first compound 2.53 µM): 0.463
relative viability ([1]; first compound 8 µM): 0.439
relative viability ([2]; first compound 0.08 µM): 0.565
relative viability ([2]; first compound 0.253 µM): 0.654
relative viability ([2]; first compound 2.53 µM): 0.622
relative viability ([2]; first compound 8 µM): 0.608
relative viability ([3]; first compound 0.08 µM): 0.654
relative viability ([3]; first compound 0.8 µM): 0.57
relative viability ([3]; first compound 2.53 µM): 0.606
relative viability ([3]; first compound 8 µM): 0.535
relative viability ([4]; first compound 0.08 µM): 0.925
relative viability ([4]; first compound 0.253 µM): 0.873
relative viability ([4]; first compound 0.8 µM): 0.869
relative viability ([4]; first compound 2.53 µM): 0.966
relative viability ([4]; first compound 8 µM): 0.996

HCC-827
relative viability ([1]; first compound 0.08 µM): 0.445
relative viability ([1]; first compound 0.253 µM): 0.409
relative viability ([1]; first compound 0.8 µM): 0.412
relative viability ([1]; first compound 2.53 µM): 0.385
relative viability ([1]; first compound 8 µM): 0.401
relative viability ([2]; first compound 0.08 µM): 0.278
relative viability ([2]; first compound 0.253 µM): 0.26
relative viability ([2]; first compound 0.8 µM): 0.308
relative viability ([2]; first compound 2.53 µM): 0.269
relative viability ([2]; first compound 8 µM): 0.265
relative viability ([3]; first compound 0.08 µM): 0.214
relative viability ([3]; first compound 0.8 µM): 0.255
relative viability ([3]; first compound 2.53 µM): 0.265
relative viability ([3]; first compound 8 µM): 0.218
relative viability ([4]; first compound 0.08 µM): 1.14
relative viability ([4]; first compound 0.253 µM): 1.1
relative viability ([4]; first compound 0.8 µM): 1.05
relative viability ([4]; first compound 2.53 µM): 1
relative viability ([4]; first compound 8 µM): 1.03

SW 1573
relative viability ([1]; first compound 0.08 µM): 0.22
relative viability ([1]; first compound 0.253 µM): 0.175
relative viability ([1]; first compound 0.8 µM): 0.178
relative viability ([1]; first compound 2.53 µM): 0.129
relative viability ([1]; first compound 8 µM): 0.149
relative viability ([2]; first compound 0.08 µM): 0.782
relative viability ([2]; first compound 0.253 µM): 0.748
relative viability ([2]; first compound 0.8 µM): 0.717
relative viability ([2]; first compound 2.53 µM): 0.646
relative viability ([2]; first compound 8 µM): 0.749
relative viability ([3]; first compound 0.08 µM): 0.726
relative viability ([3]; first compound 0.8 µM): 0.847
relative viability ([3]; first compound 2.53 µM): 0.788
relative viability ([3]; first compound 8 µM): 0.776
relative viability ([4]; first compound 0.08 µM): 0.709
relative viability ([4]; first compound 0.253 µM): 0.872
relative viability ([4]; first compound 0.8 µM): 0.837
relative viability ([4]; first compound 2.53 µM): 0.573
relative viability ([4]; first compound 8 µM): 0.653

NCI-H1975
relative viability ([1]; first compound 0.08 µM): 0.735
relative viability ([1]; first compound 0.253 µM): 0.712
relative viability ([1]; first compound 0.8 µM): 0.736
relative viability ([1]; first compound 2.53 µM): 0.829
relative viability ([1]; first compound 8 µM): 0.639
relative viability ([2]; first compound 0.08 µM): 0.288
relative viability ([2]; first compound 0.253 µM): 0.295
relative viability ([2]; first compound 0.8 µM): 0.282
relative viability ([2]; first compound 2.53 µM): 0.286
relative viability ([2]; first compound 8 µM): 0.327
relative viability ([3]; first compound 0.08 µM): 0.293
relative viability ([3]; first compound 0.8 µM): 0.307
relative viability ([3]; first compound 2.53 µM): 0.333
relative viability ([3]; first compound 8 µM): 0.283
relative viability ([4]; first compound 0.08 µM): 1.06
relative viability ([4]; first compound 0.253 µM): 0.959
relative viability ([4]; first compound 0.8 µM): 0.855
relative viability ([4]; first compound 2.53 µM): 0.853
relative viability ([4]; first compound 8 µM): 0.972

NCI-H1651
relative viability ([1]; first compound 0.08 µM): 0.698
relative viability ([1]; first compound 0.253 µM): 0.661
relative viability ([1]; first compound 0.8 µM): 0.652
relative viability ([1]; first compound 2.53 µM): 0.529
relative viability ([1]; first compound 8 µM): 0.408
relative viability ([2]; first compound 0.08 µM): 0.626
relative viability ([2]; first compound 0.253 µM): 0.57
relative viability ([2]; first compound 2.53 µM): 0.569
relative viability ([2]; first compound 8 µM): 0.555
relative viability ([3]; first compound 0.08 µM): 0.605
relative viability ([3]; first compound 0.8 µM): 0.564
relative viability ([3]; first compound 2.53 µM): 0.585
relative viability ([3]; first compound 8 µM): 0.477
relative viability ([4]; first compound 0.08 µM): 0.637
relative viability ([4]; first compound 0.253 µM): 0.827
relative viability ([4]; first compound 0.8 µM): 0.665
relative viability ([4]; first compound 2.53 µM): 0.768
relative viability ([4]; first compound 8 µM): 0.588

NCI-H460
relative viability ([1]; first compound 0.08 µM): 0.461
relative viability ([1]; first compound 0.253 µM): 0.473
relative viability ([1]; first compound 0.8 µM): 0.474
relative viability ([1]; first compound 2.53 µM): 0.347
relative viability ([1]; first compound 8 µM): 0.389
relative viability ([2]; first compound 0.08 µM): 0.065
relative viability ([2]; first compound 0.253 µM): 0.0614
relative viability ([2]; first compound 0.8 µM): 0.0662
relative viability ([2]; first compound 2.53 µM): 0.0615
relative viability ([2]; first compound 8 µM): 0.055
relative viability ([3]; first compound 0.08 µM): 0.067
relative viability ([3]; first compound 0.8 µM): 0.066
relative viability ([3]; first compound 2.53 µM): 0.07
relative viability ([3]; first compound 8 µM): 0.0715
relative viability ([4]; first compound 0.08 µM): 0.992
relative viability ([4]; first compound 0.253 µM): 1.09
relative viability ([4]; first compound 0.8 µM): 0.978
relative viability ([4]; first compound 2.53 µM): 0.987
relative viability ([4]; first compound 8 µM): 1.11

LCLC-103H
relative viability ([1]; first compound 0.08 µM): 0.51
relative viability ([1]; first compound 0.253 µM): 0.425
relative viability ([1]; first compound 0.8 µM): 0.457
relative viability ([1]; first compound 2.53 µM): 0.481
relative viability ([1]; first compound 8 µM): 0.373
relative viability ([2]; first compound 0.08 µM): 0.453
relative viability ([2]; first compound 0.253 µM): 0.46
relative viability ([2]; first compound 0.8 µM): 0.51
relative viability ([2]; first compound 2.53 µM): 0.43
relative viability ([2]; first compound 8 µM): 0.477
relative viability ([3]; first compound 0.08 µM): 0.467
relative viability ([3]; first compound 0.8 µM): 0.475
relative viability ([3]; first compound 2.53 µM): 0.426
relative viability ([3]; first compound 8 µM): 0.468
relative viability ([4]; first compound 0.08 µM): 0.771
relative viability ([4]; first compound 0.253 µM): 0.665
relative viability ([4]; first compound 0.8 µM): 0.56
relative viability ([4]; first compound 2.53 µM): 0.558
relative viability ([4]; first compound 8 µM): 0.485

Reference: the supplement of paper PMC10307832
